Legend:
[1] = Dissolution testing, Experiment 1: stirring in water at room temperature; type: physicochemical; settings: 5 mg Form A or same molar amount of co-crystal stirred at room temperature in 100 ml water
Text: Experiment 1 clearly indicated significant and faster dissolution of the barcitinib lactic acid co-crystal of the invention compared to pure cristallin baritinib form A. However, no quantitative data could be derived from this setup.

[2] = Dissolution testing, Experiment 2: photometric (310 nm) dissolution in phosphate buffer pH 6.8; type: physicochemical; settings: 50 mL phosphate buffer pH 6.8, 0.01% Tween 80, 37° C.
Protocol: We used this to quantify baricitinib concentrations. Light absorption was measured with a Shimadzu UV-1800 double beam photometer at 310 nm in a lcm quartz glass cuvette.
To counterbalance the acidifying effect of the lactic acid from the barcitinib lactic acid co-crystal, the experiments were performed in a phosphate buffer solution at a constant pH of 6.8 ([…]; 0.01 mol/L). Furthermore, 0.01% Tween 80 was added to the buffer solution in order to avoid potential agglomeration during the dissolution test.
Experiment 2: 20 mg of crystalline baricitinib free base Form A or 24.85 mg of the baricitinib lactic acid co-crystal of the present invention were stirred in a closed vessel in 50 mL of the buffer solution at 37° C. After 1, 5, 10, 15, 20, 30, 45 and 75 minutes filtered samples of the suspension were taken and diluted 1:4 with buffer solution to reach an absorption value within the calibration curve.

[3] = Differential scanning calorimetry (thermal stability); type: physicochemical; settings: heating rate 10 K/min, up to melting at about 168-170° C.
Protocol: The baricitinib lactic acid co-crystal according to the present invention was investigated by DSC, which was performed with a DSC 7 (Perkin-Elmer, Norwalk, Conn., USA) using a Pyris 2.0 software. Approximately 4±0.0005 mg sample (using a UM3 ultramicrobalance, Mettler, Greifensee, CH) were weighed into Al-Pans (25 μl) and sealed with a cover, which was perforated by a needle. Dry nitrogen was used as the purge gas (purge: 20 ml/min). Heating rate: 10 K/min.

[4] = EPAR, cited from earlier work

## CCS(=O)(=O)N1CC(CC#N)(n2cc(-c3ncnc4[nH]ccc34)cn2)C1 [baricitinib free base Form A, 2-[1-(Ethylsulfonyl)-3-[4-(7H-pyrrolo[2,3-d]pyrimidin-4-yl)-1H-pyrazol-1-yl]azetidin-3-yl]acetonitrile, reference compound]
[1]
  dissolution in water: no detectable dissolution

## CCS(=O)(=O)N1CC(CC#N)(n2cc(-c3ncnc4[nH]ccc34)cn2)C1 [baricitinib lactic acid co-crystal]
[1]
  dissolution in water: a detectable and significant amount dissolved within minutes
[2]; 1 minute
  concentration of dissolved baricitinib at 1 minute compared to baricitinib free base form A: three time higher
[2]; FIG. 7
  dissolution rate compared to baricitinib free base form A: dissolved more quickly
[3]
  thermal stability (DSC): neither phase changes nor desolvation events are detectable until the sample melts

## CCS(=O)(=O)N1CC(CC#N)(n2cc(-c3ncnc4[nH]ccc34)cn2)C1 [baricitinib, 2-[1-(Ethylsulfonyl)-3-[4-(7H-pyrrolo[2,3-d]pyrimidin-4-yl)-1H-pyrazol-1-yl]azetidin-3-yl]acetonitrile]
[4]; 0.1 N HCl
  solubility in 0.1 N HCl: only slightly soluble
[4]; water
  solubility in water: practically insoluble

Source: patent US20210206770A1, “Co-Crystal of an Orally Available Janus Kinase Inhibitor” (Sandoz AG, priority 2017, published 2021)
